Measurements published in patent publication EP3628659A1, “SELENOESTER-CONTAINING COMPOUNDS FOR USE IN THE TREATMENT OF MICROBIAL INFECTIONS OR COLORECTAL CANCER” (Consejo Superior De Investigaciones Científicas, priority 2018, dated 2020).

Columns and labels:
[1] = system: Colo 205 doxorubicin-sensitive; assay: Cytotoxicity assay (MTT) in Colo 205 cells; format: cell-based, human; conditions: for IC50: Homo sapiens, COLO 205, 24 h, read-out: Colo 205 Cytotoxicity; for SI (MRC-5/Colo205): quotient of IC50 in MRC-5 and IC50 in Colo-205
Experimental: (§1) Cytotoxicity assays in human colonic adenocarcinoma cell lines Colo 205 doxorubicin-sensitive (ATCC-CCL-222) and Colo 320/MDR-LRP multidrug resistant overexpressing ABCB1 (MDR1)-LRP (ATCC-CCL-220.1) were performed following the procedure described by Gajdács et al, 2017, Bioorg Med Chem Lett. 27(4): 797-802. The effects of increasing concentrations of selenium compounds on cell growth were tested in 96-well flat-bottomed microtiter plates. The selectivity of the action towards cancer cells was assessed through the evaluation of cytotoxic activity in a non-tumoral cell line, the MRC-5 human embryonal lung fibroblast cell lines (ATCC CCL-171), as described in Gajdács et al, 2017, Bioorg Med Chem Lett. 27(4): 797-802.
(§2) All cell lines were purchased from LGC Promochem, Teddington, UK. The colonic cells were cultured in RPMI 1640 medium supplemented with 10% heat-inactivated fetal bovine serum, 2 mM L-glutamine, 1 mM Na-pyruvate and 100 mM Hepes. The cell lines were incubated at 37°C, in a 5% CO2, 95% air atmosphere. The semi-adherent human colon cancer cells were detached with Trypsin-Versene (EDTA) solution for 5 min at 37°C. Alternatively, MRC-5 cells was cultured in Eagle's Minimal Essential Medium (EMEM, containing 4.5 g/L glucose) supplemented with a non-essential amino acid mixture, a selection of vitamins and 10% heat-inactivated fetal bovine serum. The cell lines were incubated at 37°C, in a 5% CO2, 95% air atmosphere.
(§3) The compounds were diluted in a volume of 100 µL of medium. The two-fold serial dilutions of selenocompounds were prepared in 100 µL of RPMI 1640, horizontally. The semi-adherent colonic adenocarcinoma cells were treated with Trypsin-Versene (EDTA) solution. They were adjusted to a density of 2×10^4 cells in 100 µL of RPMI 1640 medium, and were added to each well, with the exception of the medium control wells. The final volume of the wells containing selenocompounds and cells was 200 µL.
(§4) The culture plates were incubated at 37°C for 24 h; at the end of the incubation period, 20 µL of MTT (thiazolyl blue tetrazolium bromide, Sigma) solution (from a stock solution of 5 mg/mL) were added to each well. After incubation at 37°C for 4 h, 100 µL of sodium dodecyl sulfate (SDS) (Sigma) solution (10% in 0.01 M HCI) were added to each well and the plates were further incubated at 37°C overnight. Cell growth was determined by measuring the optical density (OD) at 540/630 nm with Multiscan EX ELISA reader (Thermo Labsystems, Cheshire, WA, USA). Inhibition of the cell growth was determined according to the formula below: […] = 100−[(OD sample−OD medium control)/(OD cell control−OD medium control)] × 100 [formula]
(§5) Results are expressed in terms of IC50, defined as the inhibitory dose that reduces the growth of the cells exposed to the tested compounds by 50%. Regarding the selectivity, the selectivity indexes (SI) were calculate, being SI the quotient of the IC50 in non-tumoral cells (MRC-5) and the respective cancer cell (Colo-205 or Colo-320). Compound is considered moderately selective when SI < 6 and ≥ 3; and strongly selective when SI ≥ 6.

[2] = system: Colo 320/MDR-LRP multidrug resistant overexpressing ABCB1 (MDR1)-LRP; assay: cells; format: cell-based, human; conditions: for IC50: Homo sapiens, 24 h, read-out: Colo 320 Cytotoxicity; for SI (MRC-5/Colo320): quotient of IC50 in MRC-5 and IC50 in Colo-320
Experimental: as §1, §2, §3, §4, §5

[3] = Cytotoxicity assay (MTT) in non-tumoral MRC-5 cells; format: cell-based; conditions: human, IC50 class, non-tumoral cell line; for IC50 at 24 h: MRC-5 embryonal lung fibroblast cells (non-tumoral)
Experimental: as §1, §2, §3, §4, §5

Escherichia coli AG100 = assay: MIC determination (CLSI), E. coli AG100; format: cell-based; conditions: MIC class
Experimental: The effects exerted by different concentrations of the compounds on bacterial growth in Staphylococcus aureus 25923 ATCC, Staphylococcus aureus multidrug resistant 272123 clinical isolate (MRSA), Escherichia coli AG100 or Escherichia coli AG100 A were tested in 96-well plates. The MIC of selenocompounds was determined according to Clinical and Laboratory Standard Institute (CLSI) guidelines. The solvent used (DMSO) had no antibacterial effect. Alternatively, the MICs of oxacillin of the compounds in MRSA HEMSA 5 were determined by a broth microdilution method in cation-adjusted Mueller-Hinton Broth (MHB II) according to the recommendations of the CLSI. Results were recorded after a 20- or 24-hour incubation at 37°C.

Candida albicans = assay: Antifungal activity (optical density), Candida albicans; format: cell-based; conditions: IC50 class, tested at 50, 100, 150 and 200 µM, OD 570 nm, 37 °C
Experimental: The compounds were tested for their antifungal and nematicidal properties against the fungi Candida albicans and Saccharomyces cerevisiae, and against the nematode Steinernema feltiae.
Fungal cell densities were determined by measuring the optical density (OD) at 570 nm at 0 h (first measurement immediately after incubation), 4 h, and 24 h after incubation at 37 °C; and using a Universal Microplate Reader, EL800, Biotech Instruments, Inc. Highland Park, Winooski, VT, USA. Compounds were dissolved in 1% DMSO and were tested at final concentrations of 50, 100, 150, and 200 µM. Nutrient Sabouraud Dextrose (SD), and Yeast Peptone Dextrose (YPD) were used as media for C. albicans, and S. cerevisiae, respectively. Ketoconazole was used as the positive control for C. albicans and S. cerevisiae. The growth culture with medium for each organism was used as the negative control. The Solvent 1% DMSO stock was used as a solvent control. All experiments were carried out in triplicate and on three different occasions (n = 9).
For the three organisms considered (C. albicans, S. cerevisiae and S. feltiae), the inhibitory concentration 50% (IC50) is defined as the concentration that inhibits the viability of the respective organism to a 50% of the viability determined for the negative control.

Structure (SMILES)	IC50 [1] [µM]	SI (MRC-5/Colo205) [1]	IC50 [2] [µM]	SI (MRC-5/Colo320) [2]	IC50 at 24 h [3] [µM]	Antibacterial activity Against E. coli AG100 (Escherichia coli AG100)	IC50 (Candida albicans) [µM]	CC50 ([3]; mrc-5 cells) [µM]
N#CC[Se]C(=O)c1ccc(C(=O)[Se]CC#N)cc1 [Compound 18, Se,Se-bis-(cyanomethyl) benzene-1,4-bis-(carboselenoate)]	1 to 10	*** (Strongly selective compounds: SI ≥ 6)	1 to 10	*** (Strongly selective compounds: SI ≥ 6)	> 50	** (Moderate antibacterial compounds: 10 µM < MIC ≤ 50 µM)	50 to 100	
N#CC[Se]C(=O)c1cccc(C(=O)[Se]CC#N)c1 [Compound 19, Se,Se-bis-(cyanomethyl)benzene-1,3-bis-(carboselenoate)]	1 to 10	*** (Strongly selective compounds: SI ≥ 6)	1 to 10	*** (Strongly selective compounds: SI ≥ 6)		NA (Not antibacterial compounds: MIC ≥ 100 µM)	10 to 50	> 50
N#CC[Se]C(=O)c1cc(C(=O)[Se]CC#N)cc(C(=O)[Se]CC#N)c1 [Compound 20, Se,Se,Se-tris-(cyanomethyl) benzene-1,3,5-tris-(carboxyselenoate)]	< 1	*** (Strongly selective compounds: SI ≥ 6)	1 to 10	*** (Strongly selective compounds: SI ≥ 6)	> 50	NA (Not antibacterial compounds: MIC ≥ 100 µM)	10 to 50	
CC(=O)C[Se]C(=O)c1ccc(C(=O)[Se]CC(C)=O)cc1 [Compound 22, Se,Se-bis-(2-oxopropyl) benzene-1,4-bis-(carboselenoate)]	< 1	* (Slightly selective compounds: 1 ≤ SI < 3)	< 1	* (Slightly selective compounds: 1 ≤ SI < 3)	< 1	** (Moderate antibacterial compounds: 10 µM < MIC ≤ 50 µM)	10 to 50	
CC(=O)C[Se]C(=O)c1cccc(C(=O)[Se]CC(C)=O)c1 [Compound 23, Se,Se-bis-(2-oxopropyl) benzene-1,3-bis-(carboselenoate)]	< 1	* (Slightly selective compounds: 1 ≤ SI < 3)	< 1	* (Slightly selective compounds: 1 ≤ SI < 3)	1 to 10	** (Moderate antibacterial compounds: 10 µM < MIC ≤ 50 µM)	10 to 50	
CC(=O)C[Se]C(=O)c1cc(C(=O)[Se]CC(C)=O)cc(C(=O)[Se]CC(C)=O)c1 [Compound 24, Se,Se,Se-tris-(2-oxopropyl) benzene-1,3,5-tris-(carboxyselenoate)]	< 1	* (Slightly selective compounds: 1 ≤ SI < 3)	< 1	* (Slightly selective compounds: 1 ≤ SI < 3)	< 1	** (Moderate antibacterial compounds: 10 µM < MIC ≤ 50 µM)	> 100	
